Measurements from ChEMBL document CHEMBL5120812, “Cytotoxic Nitrobenzoyl Sesquiterpenoids from an Antarctica Sponge-Derived Aspergillus insulicola” (J Nat Prod, 2022).
Active and inactive are the calls of the source. The calls are words filed in the database; no cut-off is given here.

What was measured:
[1] = tested on: PANC-1; experiment: Induction of apoptosis in human PANC-1 cells assessed as late apototic cells at 5 uM incubated for 24 hrs by annexinV-FITC and PI staining based flow cytometry analysis (reference value: 5.71 %); assay type: functional
[2] = tested on: PANC-1; experiment: Induction of apoptosis in human PANC-1 cells assessed as necrotic cells at 1.25 uM incubated for 24 hrs by annexinV-FITC and PI staining based flow cytometry analysis (reference value: 0.14 %); assay type: functional
[3] = tested on: PANC-1; experiment: Induction of apoptosis in human PANC-1 cells assessed as early apototic cells at 1.25 uM incubated for 24 hrs by annexinV-FITC and PI staining based flow cytometry analysis (reference value: 4.66 %); assay type: functional
[4] = tested on: PANC-1; experiment: Cytotoxicity against human PANC-1 cells assessed as inhibition of cell proliferation at 0.94 to 30 uM by SRB assay; assay type: functional, cell-based; details: dose 0.94-30 µM, time 24-72 hrs, TDE = time-dependent effect
[5] = tested on: ASPC1; experiment: Induction of apoptosis in human ASPC1 cells assessed as suppression of XIAP expression at upto 5 uM incubated for 24 hrs by Western blot analysis; assay type: functional, cell-based
[6] = tested on: ASPC1; experiment: Induction of apoptosis in human ASPC1 cells assessed as increase in PARP level incubated for 24 hrs by Western blot analysis; assay type: functional, cell-based; details: dose 1.25-5 µM, DDE = dose-dependent effect
[7] = tested on: PANC-1; experiment: Induction of apoptosis in human PANC-1 cells assessed as increase in cleaved caspase 3 level incubated for 24 hrs by Western blot analysis; assay type: functional, cell-based; details: dose 1.25-5 µM, DDE = dose-dependent effect
[8] = tested on: PANC-1; experiment: Inhibition of cell migration in human PANC-1 cells at 0.94 to 3.75 uM incubated for 24 hrs by wound healing assay; assay type: functional, cell-based; details: dose 0.94-3.75 µM
[9] = target: Epidermal growth factor receptor (Homo sapiens) (UniProt P00533); experiment: Inhibition of EGFR downstream signalling in human PANC-1 cells assessed as reduction of STAT3 phosphorylation upto 5 uM incubated for 24 hrs by Western blot analysis; assay type: cell-based
Chain of Epidermal growth factor receptor (Homo sapiens) (P00533 whole entry): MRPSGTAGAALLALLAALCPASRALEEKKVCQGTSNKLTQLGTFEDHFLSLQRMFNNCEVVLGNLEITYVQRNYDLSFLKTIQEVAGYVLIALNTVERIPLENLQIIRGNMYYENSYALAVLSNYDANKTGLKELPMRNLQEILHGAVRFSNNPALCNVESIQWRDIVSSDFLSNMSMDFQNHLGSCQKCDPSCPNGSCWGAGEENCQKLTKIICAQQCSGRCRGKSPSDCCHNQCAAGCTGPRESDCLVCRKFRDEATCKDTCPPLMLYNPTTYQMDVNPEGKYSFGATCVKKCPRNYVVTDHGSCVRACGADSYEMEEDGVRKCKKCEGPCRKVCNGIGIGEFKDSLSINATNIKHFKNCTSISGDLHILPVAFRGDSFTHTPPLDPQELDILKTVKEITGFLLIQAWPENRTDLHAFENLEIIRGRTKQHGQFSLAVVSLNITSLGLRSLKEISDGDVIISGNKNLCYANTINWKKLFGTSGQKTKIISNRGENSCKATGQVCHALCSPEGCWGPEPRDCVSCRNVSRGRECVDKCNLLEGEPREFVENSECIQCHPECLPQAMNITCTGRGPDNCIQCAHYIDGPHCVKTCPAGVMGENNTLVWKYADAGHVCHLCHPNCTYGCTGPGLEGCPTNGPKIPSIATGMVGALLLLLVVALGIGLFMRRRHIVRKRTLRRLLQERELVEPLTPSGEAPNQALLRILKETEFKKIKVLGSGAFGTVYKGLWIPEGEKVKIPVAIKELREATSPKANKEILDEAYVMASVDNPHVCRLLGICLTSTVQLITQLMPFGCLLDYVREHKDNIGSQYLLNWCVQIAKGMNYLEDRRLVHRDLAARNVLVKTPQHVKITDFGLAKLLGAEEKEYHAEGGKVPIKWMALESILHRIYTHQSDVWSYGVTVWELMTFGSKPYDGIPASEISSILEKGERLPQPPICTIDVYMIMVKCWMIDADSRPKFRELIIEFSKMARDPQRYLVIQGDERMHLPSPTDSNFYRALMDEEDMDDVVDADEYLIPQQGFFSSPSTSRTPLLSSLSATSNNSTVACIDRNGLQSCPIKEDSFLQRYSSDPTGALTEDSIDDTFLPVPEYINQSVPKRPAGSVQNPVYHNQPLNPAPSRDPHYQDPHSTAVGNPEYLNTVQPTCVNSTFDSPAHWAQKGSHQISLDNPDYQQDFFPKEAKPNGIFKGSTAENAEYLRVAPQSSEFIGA

[10] = tested on: ASPC1; experiment: Induction of apoptosis in human ASPC1 cells assessed as increase in cleaved caspase 9 level incubated for 24 hrs by Western blot analysis; assay type: functional, cell-based; details: dose 1.25-5 µM, DDE = dose-dependent effect
[11] = target: Epidermal growth factor receptor (Homo sapiens) (UniProt P00533); experiment: Inhibition of EGFR expression in human PANC-1 cells upto 5 uM incubated for 24 hrs by Western blot analysis; assay type: cell-based
[12] = tested on: PANC-1; experiment: Induction of apoptosis in human PANC-1 cells assessed as viable cells at 1.25 uM incubated for 24 hrs by annexinV-FITC and PI staining based flow cytometry analysis (reference value: 89.5 %); assay type: functional; details: read-out: Activity
[13] = tested on: PANC-1; experiment: Downregulation of survivin level in human PANC-1 cells upto 5 uM incubated for 24 hrs by Western blot analysis; assay type: functional, cell-based
[14] = tested on: BXPC-3; experiment: Cytotoxicity against human BXPC-3 cells assessed as inhibition of cell growth incubated for 72 hrs by SRB assay; assay type: functional, cell-based; details: BXPC-3, 72 h
[15] = tested on: PANC-1; experiment: Downregulation of Bcl-2 level in human PANC-1 cells upto 5 uM incubated for 24 hrs by Western blot analysis; assay type: functional, cell-based
[16] = tested on: ASPC1; experiment: Induction of apoptosis in human ASPC1 cells assessed as early apoptotic cells at 2.50 uM incubated for 24 hrs by annexinV-FITC and PI staining based flow cytometry analysis (reference value: 1.56 %); assay type: functional; details: dose 2.5 µM
[17] = tested on: ASPC1; experiment: Induction of apoptosis in human ASPC1 cells assessed as late apoptotic cells at 5 uM incubated for 24 hrs by annexinV-FITC and PI staining based flow cytometry analysis (reference value: 2.18 %); assay type: functional
[18] = target: Epidermal growth factor receptor (Homo sapiens) (UniProt P00533); experiment: Inhibition of EGFR downstream signalling in human ASPC1 cells assessed as reduction of STAT3 phosphorylation upto 5 uM incubated for 24 hrs by Western blot analysis; assay type: cell-based
[19] = tested on: ASPC1; experiment: Upregulation of PARP expression in human ASPC1 cells incubated for 24 hrs in presence of gemcitabine by Western blot analysis; assay type: functional, cell-based
[20] = tested on: PANC-1; experiment: Induction of apoptosis in human PANC-1 cells assessed as viable cells at 5 uM incubated for 24 hrs by annexinV-FITC and PI staining based flow cytometry analysis (reference value: 89.5 %); assay type: functional; details: read-out: Activity
[21] = tested on: ASPC1; experiment: Cytotoxicity against human ASPC1 cells assessed as inhibition of cell proliferation incubated for 24 to 72 hrs by SRB assay; assay type: functional, cell-based; details: dose 0.94-30 µM, time 24-72 hrs, DDE = dose-dependent effect
[22] = tested on: ASPC1; experiment: Downregulation of Bcl-2 level in human ASPC1 cells upto 5 uM incubated for 24 hrs by Western blot analysis; assay type: functional, cell-based
[23] = tested on: PANC-1; experiment: Induction of apoptosis in human PANC-1 cells assessed as early apototic cells at 2.50 uM incubated for 24 hrs by annexinV-FITC and PI staining based flow cytometry analysis (reference value: 4.66 %); assay type: functional; details: dose 2.5 µM
[24] = tested on: ASPC1; experiment: Cytotoxicity against human ASPC1 cells assessed as inhibition of cell growth incubated for 72 hrs by SRB assay; assay type: functional, cell-based; details: ASPC1, 72 h
[25] = tested on: ASPC1; experiment: Induction of apoptosis in human ASPC1 cells assessed as increase in caspase 3 enzymatic activity upto 5 uM incubated for 24 hrs by Western blot analysis; assay type: functional, cell-based
[26] = tested on: PANC-1; experiment: Induction of apoptosis in human PANC-1 cells assessed as increase in cleaved caspase 9 level incubated for 24 hrs by Western blot analysis; assay type: functional, cell-based; details: dose 1.25-5 µM, DDE = dose-dependent effect

In the case of `COC(=O)CCCCCCC/C=C/C(=O)OC[C@@]1(C)CCC[C@@]2(C)[C@H]1[C@H](OC(=O)c1ccc([N+](=O)[O-])cc1)C=C1C(=O)OC[C@@]12O`, the Activity [1] is reported as 23.1%, the Activity [2] is reported as 0.22% and the Activity [3] is reported as 5.99%. The Activity [4] was “Tde”, the Activity [5] was “Active” and the Activity [6] was “Dde”. The Activity [7] was “Dde”, the inhibition [8] was “Active” and the inhibition [9] was “Active”. For the same compound, the Activity [10] was “Dde”, the inhibition [11] was “Active” and the viability at 1.25 µM [12] was 90.7%. For the same compound, the Activity [13] was “Active”, the IC50 [14] was 4.88 µM and the Activity [15] was “Active”. For the same compound, the Activity [16] was 7.03%, the Activity [17] was 10.1% and the inhibition [18] was “Active”. For the same compound, the Activity [19] was “Active”, the viability at 5 µM [20] was 69.6% and the Activity [21] was “Dde”. The Activity [22] was “Active”, the Activity [23] was 5.58% and the IC50 [24] was 2.3 µM. The Activity [25] was “Active” and the Activity [26] was “Dde”.
